15 compounds from PubChem BioAssay (NCI) can be followed below.

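Results reflect a 48-hour exposure of cells in 96-well plates to compound at five concentrations. TGI denotes the concentration required for complete inhibition of growth.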

Some test systems named below: HOP-18 NSCLC; XF 498 CNS; RXF-631 renal; P388 leukemia; P388/ADR leukemia; SN12K1 renal.
Common to all, as to assay: NCI tumour cell line growth inhibition, 48 h

As for `Cc1ccc(S(=O)(=O)C2=c3ncccc3=C3C(=O)c4ccccc4C(=O)C32)cc1` (stereo not given), in the assay on HOP-18 NSCLC, the TGI is > 100 µM.

As to `C(/COc1cccnc1)=N\NC1=NCCN1`, the TGI with HOP-18 NSCLC and with XF 498 CNS was > 100 µM each time.

With `CCC(C)(C)NC1=C(NC(C)=O)C(=O)c2ccccc2C1=O`, in the assay on XF 498 CNS, the TGI is 40.2 µM.

Consider `Cc1[nH]n(-c2ccccc2)c(=S)c1C(=O)c1ccccc1`, for which the figures for the TGI in the assay on RXF-631 renal and in the assay on XF 498 CNS were 61.6 µM and > 100 µM, respectively.

Take `c1ccc2cc3n[se]nc3cc2c1`: in the assay on RXF-631 renal, the TGI is > 100 µM.

Regarding `C=C1C(=O)C=C2C=C3C(=O)C(C)(C)C[C@]3(O)C12C` (stereo not given in full), the results for the TGI in the assay with RXF-631 renal and in the assay on XF 498 CNS were 30.9 µM and 3.56 µM, respectively.

For the compound `C[n+]1c2ccccc2c(NC(CCC(N)=O)C(=O)O)c2ccccc21` (stereo not given), the TGI in the assay on HOP-18 NSCLC, with RXF-631 renal and in the assay on XF 498 CNS was > 100 µM each time.

For the compound `CC(C)NC(C)Cc1ccccc1` (stereo not given), the TGI in the assay with HOP-18 NSCLC and in the assay with RXF-631 renal was > 100 µM in each case.

`Cc1ccc(N2C(=O)/C(=c3\s/c(=C(/N)O)c(=N)n3-c3ccccc3)SC2=S)cc1`: the TGI in the assay with HOP-18 NSCLC is > 100 µM.

As for `CCC12C=CCN3CC[C@]4(C(=C(C(=O)OC)[C@@H]1Nc1ccn(C5OC(COC(C)=O)C(OC(C)=O)C5OC(C)=O)c(=O)n1)Nc1ccccc14)C32` (stereo not given in full), the TGI with HOP-18 NSCLC stood at 14.1 µM; in the assay with XF 498 CNS, 9.63 µM.

Consider `CCOc1ccc(N=Cc2cc(OC)c(OC)c(OC)c2)cc1`, for which the TGI with HOP-18 NSCLC and in the assay on XF 498 CNS was > 100 µM each time.

`CCN(CC)CC(C)(C)C(=O)/C=C/c1ccc(C)cc1`: the TGI was 23.6 µM with HOP-18 NSCLC, 55.7 µM with RXF-631 renal and 20.4 µM with XF 498 CNS.

As to `Nc1nc(=O)n(C2OC(CO)C(O)C2O)cc1F` (stereo not given), the TGI is > 100 µM with HOP-18 NSCLC; 0.0341 µM with P388 leukemia; 0.182 µM with P388/ADR leukemia; > 100 µM in the assay with SN12K1 renal; > 100 µM in the assay with XF 498 CNS.

`Cc1ccc2c(c1)NC(=O)C(N=[N+]=[N-])(c1ccccc1)C2=O` (stereo not given): the values for the TGI in the assay with HOP-18 NSCLC and in the assay with XF 498 CNS were 88.3 µM and 60.2 µM, respectively.

Regarding `Cc1c2n(c3ccccc13)CC1C2N(C)OC1(C)C` (stereo not given), the TGI with XF 498 CNS was > 100 µM.
